Measured values published in patent US11708283B2, “Metal-chelating compositions and their use in methods of removing or inhibiting barium scale” (CORNELL UNIVERSITY, priority 2018, dated 2023).

Experiments:
[1] = literature values (footnotes b, c); cited from earlier work
[2] = Recovery and reuse of macropa for BaSO4 dissolution
Experimental: The capacity for recovery and reuse of macropa post-BaSO4 dissolution was assessed qualitatively. FIG. 7 schematically depicts a process for ligand recovery and reuse. A solution of macropa-dissolved BaSO4 was acidified to release the Ba^2+ from the ligand as BaSO4. After filtration of the precipitated BaSO4 and basification of the solution, the recovered ligand was successfully reused for another cycle of BaSO4 dissolution. More specifically, a sample of macropa-dissolved BaSO4 (9.66 mM macropa, 8.74 mM Ba(NO3)2, 26.04 mM Na2SO4) was acidified to pH 1 with concentrated HCl to protonate the ligand, inducing Ba^2+ decomplexation and precipitation as BaSO4. The macropa solution was isolated by filtration, basified to pH 8 with 2 M NaOH, and combined with another portion of BaSO4. Within 40 minutes, no visible precipitate remained in the vial, signaling that the recycled macropa dissolved all the BaSO4.
In other experiments, an initial solution of macropa-dissolved BaSO4 was prepared by stirring at 450 RPM a suspension containing BaSO4 (8.74 mM Ba(NO3)2; 26.04 mM Na2SO4), macropa (9.66 mM), and 2M NaOH (35 μL) in 1M NaHCO3 (326 μL). The final volume was 1035 μL and the pH was 8. […] The solution was adjusted to pH 1 (by litmus paper) by adding concentrated HCl (3 drops). The resultant suspension was stirred for 10 minutes and then filtered through a nylon syringe filter (0.22 μm). The syringe filter was rinsed with 0.1 M HCl (2×100 μL) to facilitate full recovery of the ligand. The pH of the filtrate was carefully adjusted back to pH 8 (by litmus paper) with 2 M NaOH. To this recovered solution of macropa was added another portion of BaSO4 (0.009 mmol BaNO3, 0.027 mmol Na2SO4). The suspension was stirred at 450 RPM and RT. The dissolution of BaSO4 was monitored visually until all of the BaSO4 was dissolved, marking the completion of a full cycle of ligand recovery and reuse. Another cycle was then initiated via the addition of concentrated HCl to the solution. A total of five cycles were performed and the time to full dissolution of BaSO4 was recorded. […] The precipitate may be attributed to a small amount of BaSO4 that remains undissolved as a consequence of ligand loss over time, which occurs because aliquots of the solution are removed to assess the pH during the recovery and reuse process.

SMILES | log KBaL [1] | time to complete dissolution of BaSO4 (initial solution) ([2]; 9.66 mM macropa, 8.74 mM Ba(NO3)2, 26.04 mM Na2SO4, pH 8) [min] | time until no visible BaSO4 precipitate remained with recycled ligand ([2]; first reuse, pH 8) [min] | efficacy on reuse four more times ([2]; ligand recovered and reused) | BaSO4 dissolution during the 4th and 5th cycles ([2]; recovery and reuse cycles)
O=C(O)CN1CCN(CC(=O)O)CCN(CC(=O)O)CCN(CC(=O)O)CC1 [DOTA, reference compound] | 11.75 |  |  |  | 
O=C(O)c1cccc(CN2CCOCCOCCN(Cc3cccc(C(=O)O)n3)CCOCCOCC2)n1 [macropa, 6,6-((1,4,10,13-tetraoxa-7,16-diazacyclooctadecane-7,16-diyl)bis(methylene))dipicolinic acid] |  | 17 | ≤ 40 | negligible loss in efficacy or speed of dissolution | dissolution of most of the BaSO4 was rapidly achieved within the first hour
